{"source": "patent US9856216B2", "about": "“Compounds as TNIK, IKKε and TBK1 inhibitors and pharmaceutical composition comprising same” (GREEN CROSS CORPORATION, priority 2015, dated 2018)", "note": "Counter-ions that a name gives are not always drawn.", "data": [{"target": "T1, TNIK (Homo sapiens, UniProt Q9UKE5)", "T1 construct": "purchased Promega V4158", "T1 sequence (Q9UKE5 1-367 limits assumed)": "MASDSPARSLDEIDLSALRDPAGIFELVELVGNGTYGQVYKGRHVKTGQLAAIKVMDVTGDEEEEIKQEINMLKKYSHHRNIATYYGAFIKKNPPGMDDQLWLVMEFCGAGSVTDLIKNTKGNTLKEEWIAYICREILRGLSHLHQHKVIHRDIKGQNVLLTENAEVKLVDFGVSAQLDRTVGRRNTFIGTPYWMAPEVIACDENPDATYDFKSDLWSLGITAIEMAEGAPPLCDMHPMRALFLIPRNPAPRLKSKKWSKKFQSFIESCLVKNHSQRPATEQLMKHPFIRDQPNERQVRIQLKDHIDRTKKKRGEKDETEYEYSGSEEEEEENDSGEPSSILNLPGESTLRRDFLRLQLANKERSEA", "test": "ADP-Glo Kinase Assay, inhibition activity on TNIK", "assay_type": "biochemical", "conditions": "not given", "description": "(§1) The inhibition activities on TNIK, IKKε and TBK1 were measured by a luminometer, TNIK/IKKε/TBK1 Kinase Enzyme System (Promega, Ca# V4158; Invitrogen, PR8031B, Promega, Ca# V3991) and ADP-Glo Kinase Assay using ADP-Glo™ Kinase Analysis Kit (Promega, Ca# V9101) and a kinase reaction buffer [40 mM Tris(pH 7.5), 20 mM MgCl2, 0.1 mg/mL BSA] in accordance with the manufacturer's protocol.", "values": [{"compound": "O=C(Nc1ccc(-c2ccncc2)c2c1C(=O)NC2)c1ccccc1", "note": "[Example 127, N-(3-oxo-7-(pyridin-4-yl)isoindolin-4-yl)benzamide]", "TNIK (μM)": "Insoluble"}]}, {"target": "T1, TNIK", "test": "ADP-Glo Kinase Assay, inhibition activity on TNIK", "assay_type": "biochemical", "conditions": "read-out: TNIK", "description": "as §1", "units": {"IC50": "nM"}, "values": [{"compound": "COc1ccc(C(=O)Nc2ccc(-c3ccccc3)c3c2C(=O)NC3)cc1", "note": "[Example 121, 4-Methoxy-N-(3-oxo-7-phenylisoindolin-4-yl)benzamide]", "IC50": 3400}, {"compound": "O=C(Nc1ccc(-c2ccccc2)c2c1C(=O)NC2)c1ccc(F)cc1", "note": "[Example 122, 4-Fluoro-N-(3-oxo-7-phenylisoindolin-4-yl)benzamide]", "IC50": 2200}, {"compound": "COc1ccc(C(=O)Nc2ccc(-c3ccc(F)cc3)c3c2C(=O)NC3)cc1", "note": "[Example 123, N-(7-(4-fluorophenyl)-3-oxoisoindolin-4-yl)-4-methoxy benzamide]", "IC50": 7000}, {"compound": "CC(=O)Nc1ccc(C(=O)Nc2ccc(-c3ccc(F)cc3)c3c2C(=O)NC3)cc1", "note": "[Example 124, 4-Acetamido-N-(7-(4-fluorophenyl)-3-oxoisoindolin-4-yl) benzamide]", "IC50": 170}, {"compound": "O=C(Nc1ccc(-c2cccs2)c2c1C(=O)NC2)c1ccccc1", "note": "[Example 125, N-(3-oxo-7-(thiophen-2-yl)isoindolin-4-yl)benzamide]", "IC50": 1400}, {"compound": "O=C(Nc1ccc(-c2ccco2)c2c1C(=O)NC2)c1ccccc1", "note": "[Example 126, N-(7-(furan-2-yl)-3-oxoisoindolin-4-yl)benzamide]", "IC50": 600}, {"compound": "O=C(Nc1ccc(-c2ccncc2)c2c1C(=O)NC2)c1ccccc1", "note": "[Example 128, N-(3-oxo-7-(pyridin-4-yl)isoindolin-4-yl)benzamide hydrochloride]", "IC50": "> 20000"}, {"compound": "COc1ccccc1C(=O)Nc1ccc(-c2ccccc2)c2c1C(=O)NC2", "note": "[Example 129, 2-Methoxy-N-(3-oxo-7-phenylisoindolin-4-yl)benzamide]", "IC50": "> 20000"}, {"compound": "O=C(Nc1ccc(-c2ccccc2)c2c1C(=O)NC2)c1cccc(F)c1", "note": "[Example 130, 3-fluoro-N-(3-oxo-7-phenylisoindolin-4-yl)benzamide]", "IC50": "> 20000"}, {"compound": "CSc1ccc(C(=O)Nc2ccc(-c3ccccc3)c3c2C(=O)NC3)cc1", "note": "[Example 131, 4-(Methylthio)-N-(3-oxo-7-phenylisoindolin-4-yl)benzamide]", "IC50": 2300}, {"compound": "CCCOc1ccc(-c2ccc(NC(=O)c3ccccc3)c3c2CNC3=O)cc1", "note": "[Example 132, N-(3-oxo-7-(4-propoxyphenyl)isoindolin-4-yl)benzamide]", "IC50": "> 20000"}, {"compound": "CC(C)c1ccc(-c2ccc(NC(=O)c3ccccc3)c3c2CNC3=O)cc1", "note": "[Example 133, N-(7-(4-isopropylphenyl)-3-oxoisoindolin-4-yl)benzamide]", "IC50": "> 20000"}, {"compound": "COc1cccc(-c2ccc(NC(=O)c3ccco3)c3c2CNC3=O)c1OC", "note": "[Example 134, N-(7-(2,3-dimethoxyphenyl)-3-oxoisoindolin-4-yl)furan-2-carboxamide]", "IC50": 54}, {"compound": "COc1cccc(-c2ccc(NC(=O)c3ccc(F)cc3)c3c2CNC3=O)c1OC", "note": "[Example 135, N-(7-(2,3-dimethoxyphenyl)-3-oxoisoindolin-4-yl)-4-fluoro benzamide]", "IC50": 140}, {"compound": "COc1cccc(-c2ccc(NC(=O)c3cccs3)c3c2CNC3=O)c1OC", "note": "[Example 136, N-(7-(2,3-dimethoxyphenyl)-3-oxoisoindolin-4-yl)thiophene-2-carboxamide]", "IC50": 68}, {"compound": "Cc1cc(F)ccc1C(=O)Nc1ccc(-c2ccccc2)c2c1C(=O)NC2", "note": "[Example 137, 4-Fluoro-2-methyl-N-(3-oxo-7-phenylisoindolin-4-yl) benzamide]", "IC50": "> 20000"}, {"compound": "COc1ccccc1-c1ccc(NC(=O)c2ccc(NC(C)=O)cc2)c2c1CNC2=O", "note": "[Example 138, 4-Acetamido-N-(7-(2-methoxyphenyl)-3-oxoisoindolin-4-yl) benzamide]", "IC50": 200}, {"compound": "CN(C)c1ccc(C(=O)Nc2ccc(-c3ccccc3)c3c2C(=O)NC3)cc1", "note": "[Example 139, 4-(Dimethylamino)-N-(3-oxo-7-phenylisoindolin-4-yl) benzamide]", "IC50": 1800}, {"compound": "CC(=O)Nc1ccc(C(=O)Nc2ccc(-c3ccco3)c3c2C(=O)NC3)cc1", "note": "[Example 140, 4-Acetamido-N-(7-(furan-2-yl)-3-oxoisoindolin-4-yl) benzamide]", "IC50": 300}, {"compound": "COc1ccccc1-c1ccc(NC(=O)c2ccc(F)cc2)c2c1CNC2=O", "note": "[Example 141, 4-Fluoro-N-(7-(2-methoxyphenyl)-3-oxoisoindolin-4-yl) benzamide]", "IC50": 1600}, {"compound": "O=C(Nc1ccc(-c2ccccc2)c2c1C(=O)NC2)c1ccccc1F", "note": "[Example 142, 2-Fluoro-N-(3-oxo-7-phenylisoindolin-4-yl)benzamide]", "IC50": 950}, {"compound": "O=C(Nc1ccc(-c2ccccc2)c2c1C(=O)NC2)c1ccc(Cl)cc1", "note": "[Example 143, 4-Chloro-N-(3-oxo-7-phenylisoindolin-4-yl)benzamide]", "IC50": 1100}, {"compound": "COc1ccccc1-c1ccc(NC(=O)c2ccccc2)c2c1CNC2=O", "note": "[Example 144, N-(7-(2-methoxyphenyl)-3-oxoisoindolin-4-yl)benzamide]", "IC50": 700}, {"compound": "COc1cccc(-c2ccc(NC(=O)c3ccccc3)c3c2CNC3=O)c1", "note": "[Example 145, N-(7-(3-methoxyphenyl)-3-oxoisoindolin-4-yl)benzamide]", "IC50": 1300}, {"compound": "O=C(Nc1ccc(-c2ccsc2)c2c1C(=O)NC2)c1ccccc1", "note": "[Example 146, N-(3-oxo-7-(thiophen-3-yl)isoindolin-4-yl)benzamide]", "IC50": "> 20000"}, {"compound": "N#Cc1cccc(-c2ccc(NC(=O)c3ccccc3)c3c2CNC3=O)c1", "note": "[Example 147, N-(7-(3-cyanophenyl)-3-oxoisoindolin-4-yl)benzamide]", "IC50": "> 20000"}, {"compound": "CN(C)c1cccc(-c2ccc(NC(=O)c3ccccc3)c3c2CNC3=O)c1", "note": "[Example 148, N-(7-(3-(dimethylamino)phenyl)-3-oxoisoindolin-4-yl) benzamide]", "IC50": 7400}, {"compound": "O=C(Nc1ccc(-c2ccccc2F)c2c1C(=O)NC2)c1ccccc1", "note": "[Example 149, N-(7-(2-fluorophenyl)-3-oxoisoindolin-4-yl)benzamide]", "IC50": 3800}, {"compound": "O=C(Nc1ccc(-c2ccoc2)c2c1C(=O)NC2)c1ccccc1", "note": "[Example 150, N-(7-(furan-3-yl)-3-oxoisoindolin-4-yl)benzamide]", "IC50": 2700}, {"compound": "O=C(Nc1ccc(-c2cccc(F)c2)c2c1C(=O)NC2)c1ccccc1", "note": "[Example 151, N-(7-(3-fluorophenyl)-3-oxoisoindolin-4-yl)benzamide]", "IC50": 1500}, {"compound": "O=C(Nc1ccc(-c2cccnc2)c2c1C(=O)NC2)c1ccccc1", "note": "[Example 152, N-(3-oxo-7-(pyridin-3-yl)isoindolin-4-yl)benzamide]", "IC50": "> 20000"}, {"compound": "O=C(Nc1ccc(-c2cncnc2)c2c1C(=O)NC2)c1ccccc1", "note": "[Example 154, N-(3-oxo-7-(pyrimidin-5-yl)isoindolin-4-yl)benzamide]", "IC50": "> 20000"}, {"compound": "O=C(Nc1ccc(-c2ccccc2)c2c1C(=O)NC2)c1sccc1Cl", "note": "[Example 155, 3-Chloro-N-(3-oxo-7-phenylisoindolin-4-yl)thiophene-2-carboxamide]", "IC50": 2290}, {"compound": "O=C(Nc1ccc(-c2ccccc2)c2c1C(=O)NC2)c1ccc(Br)s1", "note": "[Example 156, 5-Bromo-N-(3-oxo-7-phenylisoindolin-4-yl)thiophene-2-carboxamide]", "IC50": 2860}, {"compound": "O=C(Nc1ccc(-c2ccccc2)c2c1C(=O)NC2)c1sccc1Br", "note": "[Example 157, 3-Bromo-N-(3-oxo-7-phenylisoindolin-4-yl)thiophene-2-carboxamide]", "IC50": 3400}, {"compound": "O=C(Nc1ccc(-c2ccco2)c2c1C(=O)NC2)c1ccc(F)cc1", "note": "[Example 158, 4-Fluoro-N-(7-(furan-2-yl)-3-oxoisoindolin-4-yl)benzamide]", "IC50": 1270}, {"compound": "CCCCC(=O)Nc1ccc(-c2ccccc2)c2c1C(=O)NC2", "note": "[Example 159, N-(3-oxo-7-phenylisoindolin-4-yl)pentanamide]", "IC50": 1800}, {"compound": "CC(=O)Nc1ccc(-c2ccccc2)c2c1C(=O)NC2", "note": "[Example 160, N-(3-oxo-7-phenylisoindolin-4-yl)acetamide]", "IC50": 1100}, {"compound": "CS(=O)(=O)c1ccc(-c2ccc(NC(=O)c3ccccc3)c3c2CNC3=O)cc1", "note": "[Example 167, N-(7-(4-(methylsulfonyl)phenyl)-3-oxoisoindolin-4-yl) benzamide]", "IC50": 9800}, {"compound": "CS(=O)(=O)c1cccc(-c2ccc(NC(=O)c3ccccc3)c3c2CNC3=O)c1", "note": "[Example 168, N-(7-(3-(methylsulfonyl)phenyl)-3-oxoisoindolin-4-yl) benzamide]", "IC50": "> 20000"}, {"compound": "CC(=O)Nc1cccc(-c2ccc(NC(=O)c3ccccc3)c3c2CNC3=O)c1", "note": "[Example 169, N-(7-(3-acetamidophenyl)-3-oxoisoindolin-4-yl)benzamide]", "IC50": 4200}, {"compound": "O=C(Nc1ccc(-c2ccccc2)c2c1C(=O)NC2)c1ccc(Cl)s1", "note": "[Example 170, 5-Chloro-N-(3-oxo-7-phenylisoindolin-4-yl)thiophene-2-carboxamide]", "IC50": 3520}, {"compound": "COc1cccc(-c2ccc(NC(=O)c3ccccc3)c3c2CNC3=O)c1OC", "note": "[Example 171, N-(7-(2,3-dimethoxyphenyl)-3-oxoisoindolin-4-yl)benzamide]", "IC50": 57}, {"compound": "COc1cc(OC)cc(-c2ccc(NC(=O)c3ccccc3)c3c2CNC3=O)c1", "note": "[Example 172, N-(7-(3,5-dimethoxyphenyl)-3-oxoisoindolin-4-yl)benzamide]", "IC50": "> 20000"}, {"compound": "O=C(Nc1ccc(C2CC2)c2c1C(=O)NC2)c1ccccc1", "note": "[Example 173, N-(7-cyclopropyl-3-oxoisoindolin-4-yl)benzamide]", "IC50": 750}, {"compound": "O=C(Nc1ccc(-c2ccccc2Cl)c2c1C(=O)NC2)c1ccccc1", "note": "[Example 174, N-(7-(2-chlorophenyl)-3-oxoisoindolin-4-yl)benzamide]", "IC50": "> 20000"}, {"compound": "COc1ccc(-c2ccc(NC(=O)c3ccccc3)c3c2CNC3=O)c(OC)c1", "note": "[Example 175, N-(7-(2,4-dimethoxyphenyl)-3-oxoisoindolin-4-yl)benzamide]", "IC50": 3000}, {"compound": "COc1ccc(-c2ccc(NC(=O)c3ccccc3)c3c2CNC3=O)cc1OC", "note": "[Example 176, N-(7-(3,4-dimethoxyphenyl)-3-oxoisoindolin-4-yl)benzamide]", "IC50": "> 20000"}]}]}
